According to patent publication US9265709B2, “Use of peptides as antidandruff agents” (L'OREAL, priority 2009, dated 2016):
Ends that are not written are not given here.

Tested on: M. furfur
Experiment: Antimicrobial activity (MIC) micromethod in microplates on microorganisms responsible for dandruff
Format: cell-based
Conditions: Sabouraud medium with 10% olive oil, 24 to 48 hours at 32.5° C., OD 620 nm vs control without peptide, peptide tested at 0.1%, 0.25%, 0.5% and 1%
Procedure: The antimicrobial activity of the peptides used according to the invention may be evaluated by measuring their minimum inhibitory concentration (MIC). Decreasing concentrations of peptides are contacted with standardised inoculum of microorganisms in a culture medium suitable for growth of said microorganisms in exponential growth phase. After incubation at the suitable temperature for the microorganism, the growth is evaluated by an OD (620 nm) measurement. […] The MIC obtained may be compared with the same measurement performed only with solvent (without the peptide) or with a compound of known antibiotic activity. This test may also be used to test the selectivity of the peptides used. This method can be used to determine the effect of the test peptide on a beneficial microorganism of the microbial flora of the scalp such as Staphylococcus epidermidis. Peptides that give on the strains responsible for desquamative disorders of the hair and/or the scalp (e.g., M. furfur) better inhibition than on the beneficial strains (e.g., S. epidermidis) will be selected.
The test has been carried using a micromethod in microplates. […]
After incubation of the microplate from 24 to 48 hours at 32.5° C., optical density at 620 nm has been measured. […]

Substance: FLSLIPHAINAVSAIAKHF-NH2 (listed as Phyllomedusa azurea) [PS-7]
- MIC: <0.1%

Substance: GLWSTIKNVGKEAAIAAGKAALGAL-NH2 (listed as Phyllomedusa hypochondrialis) [DPh-1]
- MIC: <0.1%
